Experimental data as given in patent US4098823A, “Monospiroalkyl derivatives of prostaglandins” (Miles Laboratories, Inc., priority 1977, dated 1978).

Experiments:
[1] = tested on: Human Platelet Aggregation; test: Inhibition of Human Platelet Aggregation; type: cell-based; settings: in vitro
Method: The ability of test compounds to inhibit platelet aggregation was determined by a modification of the turbidometric technique of Born (Nature, 194:927 [1962]). Blood was collected from human volunteers who had not ingested aspirin or aspirin-containing products within the preceding two weeks in heparinized containers and was allowed to settle for one (1) hour. The platelet rich plasma (prp) supernates were collected and cooled. Siliconized glassware was used throughout.
In a representative assay 1.9 ml of PRP and 0.2 ml of test compound at the appropriate concentrations (0.001 to 100 mcgm), or 0.2 ml of distilled water (control procedure) were placed in sample cuvettes. The cuvettes were placed in a 37° C incubation block for 15 minutes, and then in a spectrophotometer linked to a strip chart recorder. After 30-60 seconds, 0.2 ml of a solution, prepared by diluting a calf-skin collagen solution 1:9 with Tyrodes' Solution, was added to each cuvette. Platelet aggregation was evidenced by a decrease in optical density.
An ED50 value was then determined graphically.

Gastric Secretion = test: Effects on Gastric Secretion in the Rat; type: in vivo; settings: pylorus-ligated rat, subcutaneous, 2 x 1.5 mg/kg (total 3.0 mg/kg), 4 hours
In short: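 Rats (150-200 g, groups of six) fasted 48 h, pylorus ligated under ether. Compounds given s.c. in phosphate buffer pH 7.38 at 1.5 mg/kg immediately post-surgery and 2 h later (total 3.0 mg/kg). At 4 h, gastric volume and total acid (titration with 0.1 N NaOH, mEq) compared with vehicle controls by t-test.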

rat colon = test: Cascade Assay, colon (smooth muscle stimulant effect); type: cell-based; settings: superfused, 50% of maximum (PGF2α)
In short: (§1)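 Rabbit aortic strip (4 g tension), rat stomach fundus, rat colon and chick rectum (1 g) in cascade, superfused at 10 ml/min with 37° C Krebs containing cholinergic, adrenergic, serotonin and histamine blockers. Doses of 0.001–100,000 ng dripped on at 10–20 min intervals; maximal tension rise gave graphical ED50 per tissue.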

chick rectum = test: Cascade Assay, rectum (smooth muscle stimulant effect); type: cell-based; settings: superfused, 50% of maximum (PGE1)
In short: as §1

## COC(=O)CCCCCC[C@H]1C(=O)C[C@@H](O)[C@@H]1/C=C/[C@H](O)C1CC2(CCC2)C1 [TR-4120, Methyl 7-{3R-hydroxy-5-oxo-2R-[3R-hydroxy-3-(spiro[3.3]hept-2-yl)-1E-propenyl]cyclopent-1R-yl}heptanoate]
[1]
  inhibition of aggregation of human platelets, in words: inhibit aggregation of platelets
Gastric Secretion
  Test B Activity Value (% decrease in acidity, inhibition of gastric secretion): 2 (26-50, significant)
Rat colon
  Test E Cascade Assay, Colon, Activity Value (ED50): 0 (>10000)
Chick rectum
  Test E Cascade Assay, Rectum, Activity Value (ED50): 1 (1001 - 10000)
